Laboratory results reported in ChEMBL document CHEMBL3856236, “Discovery of 6-Diazo-5-oxo-l-norleucine (DON) Prodrugs with Enhanced CSF Delivery in Monkeys: A Potential Treatment for Glioblastoma” (J Med Chem, 2016).
One block for each compound: values may come before it. Active and inactive are the calls of the source. The calls are words filed in the database; no cut-off is given here.

How the values were obtained:
[1] = Chemical stability of the compound at 10 uM at pH 7.4 after 1 hr by LC-MS/MS analysis; assay type: physicochemical; details: buffer; for Stability: pH 7.4, 1 h, 10 µM; for remaining at 1 h, 10 µM: pH 7.4, read-out: Stability
[2] = Metabolic stability in monkey plasma assessed as compound remaining at 10 uM at 60 mins by LC-MS/MS analysis; assay type: ADME, cell-free, Macaca mulatta; details: rhesus monkey, read-out: Stability
[3] = Metabolic stability in mouse plasma assessed as compound remaining at 10 uM at 60 mins by LC-MS/MS analysis; assay type: ADME, cell-free; details: read-out: Stability
[4] = Metabolic stability in human plasma assessed as compound remaining at 10 uM at 60 mins by LC-MS/MS analysis; assay type: ADME, cell-free; details: read-out: Stability
[5] = Antitumor activity against human U87 cells xenografted in RHFoxn1nu mouse assessed as tumor volume at 0.8 mg/kg, ip qd for 6 days measured on day 6 post dose (reference value: 533 mm3); assay type: functional, U-87MG ATCC
[6] = Antitumor activity against human U87 cells xenografted in RHFoxn1nu mouse assessed as tumor volume at 0.8 mg/kg, ip qd for 6 days measured on day 2 post dose (reference value: 401 mm3); assay type: functional, U-87MG ATCC
Mus musculus [7] = experiment: Toxicity in RHFoxn1nu mouse xenografted with human U87 cells assessed as ptosis at 0.8 mg/kg, ip qd for 6 days; assay type: organism-based, U-87MG ATCC; details: in vivo, 144 h
[8] = Antitumor activity against human U87 cells xenografted in RHFoxn1nu mouse assessed as tumor volume at 0.8 mg/kg, ip qd for 6 days measured on day 4 post dose (reference value: 454 mm3); assay type: functional, U-87MG ATCC
in vivo [9] = details: C57BL/6, mouse, plasma, po, 0.8 mg/kg
Description: AUC (0 to t) in C57BL/6 mouse plasma at 0.8 mg/kg administered via oral gavage measured at 10 to 90 mins post dose by LC-MS analysis

[10] = Cmax in C57BL/6 mouse plasma at 0.8 mg/kg administered via oral gavage by LC-MS analysis; assay type: ADME, organism-based; parameters: dose 0.8 mg/kg, route oral
[11] = Drug uptake in pig-tail monkey CSF at 1.6 mg/kg, iv measured at 30 mins post dose by LC-MS analysis; assay type: ADME, organism-based, Cerebrospinal fluid; details: macaca nemestrina, in vivo, 0.5 h
[12] = Cmax in pig-tail monkey plasma at 1.6 mg/kg, iv by LC-MS analysis; assay type: ADME, organism-based; parameters: dose 1.6 mg/kg, route intravenous; details: macaca nemestrina
[13] = Antitumor activity against human U87 cells xenografted in RHFoxn1nu mouse assessed as tumor volume at 0.8 mg/kg, ip qd for 6 days measured immediately post dose (reference value: 409 mm3); assay type: functional, U-87MG ATCC
[14] = Ratio of drug level in C57BL/6 mouse brain to plasma at 0.8 mg/kg administered via oral gavage; assay type: ADME, organism-based; details: read-out: BPR
[15] = Tmax in C57BL/6 mouse plasma at 0.8 mg/kg administered via oral gavage by LC-MS analysis; assay type: ADME, organism-based
Mus musculus [16] = experiment: Toxicity in RHFoxn1nu mouse xenografted with human U87 cells assessed as weight loss at 0.8 mg/kg, ip qd for 6 days; assay type: organism-based, U-87MG ATCC; details: in vivo, 144 h
in vivo [17] = details: macaca nemestrina, plasma, iv, 1.6 mg/kg
Description: AUC (0 to t) in pig-tail monkey plasma at 1.6 mg/kg, iv measured at 0.25 to 6 hrs post dose by LC-MS analysis

[18] = Cmax in C57BL/6 mouse brain at 0.8 mg/kg administered via oral gavage by LC-MS analysis; assay type: ADME, organism-based; parameters: dose 0.8 mg/kg, route oral; details: in vivo
Mus musculus [19] = experiment: Toxicity in RHFoxn1nu mouse xenografted with human U87 cells assessed as lethargy at 0.8 mg/kg, ip qd for 6 days; assay type: organism-based, U-87MG ATCC; details: in vivo, 144 h
[20] = Antitumor activity against human U87 cells xenografted in RHFoxn1nu mouse assessed as reduction in tumor volume at 0.8 mg/kg, ip qd for 6 days measured 2 to 6 days post dose; assay type: functional, U-87MG ATCC; details: U-87 MG
Mus musculus [21] = experiment: Toxicity in RHFoxn1nu mouse xenografted with human U87 cells assessed as hunching at 0.8 mg/kg, ip qd for 6 days; assay type: organism-based, U-87MG ATCC; details: in vivo, 144 h
Mus musculus [22] = experiment: In vivo inhibition of glutamine metabolism in RHFoxn1nu mouse xenografted with human U87 cells assessed as accumulation of endogenous glutamine in tumor at 0.8 mg/kg, ip administered as single dose measured after 2 hrs by HPLC-MS analysis; assay type: functional, organism-based; details: U-87MG ATCC
[23] = Cmax in C57BL/6 mouse plasma assessed as 6-Diazo-5-oxo-L-norleucine levels at 1.8 mg/kg administered via oral gavage by LC-MS analysis; assay type: ADME, organism-based; parameters: dose 1.8 mg/kg, route oral; details: in vivo
[24] = Cmax in pig-tail monkey plasma assessed as 6-Diazo-5-oxo-L-norleucine levels at 3.6 mg/kg, iv by LC-MS analysis; assay type: ADME, organism-based; parameters: dose 3.6 mg/kg, route intravenous; details: macaca nemestrina, in vivo
[25] = Tmax in pig-tail monkey plasma assessed as 6-Diazo-5-oxo-L-norleucine levels at 3.6 mg/kg, iv by LC-MS analysis; assay type: ADME, organism-based; details: macaca nemestrina, in vivo
[26] = AUC (0 to t) in pig-tail monkey plasma assessed as 6-Diazo-5-oxo-L-norleucine levels at 3.6 mg/kg, iv measured at 0.25 to 6 hrs post dose by LC-MS analysis; assay type: ADME, organism-based; parameters: time upper 6 hr, dose 3.6 mg/kg, time lower 0.25 hr, route intravenous; details: macaca nemestrina, in vivo
[27] = AUC (0 to t) in C57BL/6 mouse brain assessed as 6-Diazo-5-oxo-L-norleucine levels at 1.8 mg/kg administered via oral gavage measured at 10 to 90 mins post dose by LC-MS analysis; assay type: ADME, organism-based; details: in vivo
[28] = Cmax in C57BL/6 mouse brain assessed as 6-Diazo-5-oxo-L-norleucine levels at 1.8 mg/kg administered via oral gavage by LC-MS analysis; assay type: ADME, organism-based; parameters: dose 1.8 mg/kg, route oral; details: in vivo
[29] = Ratio of drug level in C57BL/6 mouse brain to plasma assessed as 6-Diazo-5-oxo-L-norleucine levels at 1.8 mg/kg administered via oral gavage; assay type: ADME, organism-based
[30] = Prodrug activation in pig-tail monkey CSF assessed as 6-Diazo-5-oxo-L-norleucine levels at 3.6 mg/kg, iv measured at 30 mins post dose by LC-MS analysis; assay type: organism-based, Cerebrospinal fluid; details: macaca nemestrina, in vivo, 0.5 h
[31] = Tmax in C57BL/6 mouse plasma assessed as 6-Diazo-5-oxo-L-norleucine levels at 1.8 mg/kg administered via oral gavage by LC-MS analysis; assay type: ADME, organism-based; details: in vivo
[32] = AUC (0 to t) in C57BL/6 mouse plasma assessed as 6-Diazo-5-oxo-L-norleucine levels at 1.8 mg/kg administered via oral gavage measured at 10 to 90 mins post dose by LC-MS analysis; assay type: ADME, organism-based; details: in vivo

Compound: CCOC(=O)[C@@H](N)CCC(=O)C=[N+]=[N-]
Stability [1]: Unstable

remaining at 1 h, 10 µM [2]: 0%
remaining at 1 h, 10 µM [3]: 0%
remaining at 1 h, 10 µM [1]: > 90%
remaining at 1 h, 10 µM [4]: 9%
Compound: CC(C)OC(=O)[C@H](CCC(=O)C=[N+]=[N-])NC(=O)OCOC(=O)C(C)(C)C

Stability [1]: Unstable
Compound: CC(C)OC(=O)[C@@H](N)CCC(=O)C=[N+]=[N-]

remaining at 1 h, 10 µM [2]: 1%
remaining at 1 h, 10 µM [3]: 0%
remaining at 1 h, 10 µM [1]: > 90%
remaining at 1 h, 10 µM [4]: 1%
Compound: CC(C)C[C@H](N)C(=O)N[C@@H](CCC(=O)C=[N+]=[N-])C(=O)OC(C)C

remaining at 1 h, 10 µM [2]: 75%
remaining at 1 h, 10 µM [3]: 0%
remaining at 1 h, 10 µM [1]: > 90%
remaining at 1 h, 10 µM [4]: 88%
Compound: CCC(OC(=O)N[C@@H](CCC(=O)C=[N+]=[N-])C(=O)OC)OC(=O)C(C)(C)C (stereo partly drawn)

Compound: CCOC(=O)[C@H](CCC(=O)C=[N+]=[N-])NC(=O)[C@@H](N)CC(C)C
remaining at 1 h, 10 µM [2]: 1%
remaining at 1 h, 10 µM [3]: 0%
remaining at 1 h, 10 µM [1]: > 90%
remaining at 1 h, 10 µM [4]: 1%

remaining at 1 h, 10 µM [2]: 0%
remaining at 1 h, 10 µM [3]: 0%
remaining at 1 h, 10 µM [1]: > 90%
remaining at 1 h, 10 µM [4]: 0%
Compound: Cc1oc(=O)oc1COC(=O)N[C@@H](CCC(=O)C=[N+]=[N-])C(=O)OC(C)C

Compound: [N-]=[N+]=CC(=O)CC[C@H](N)C(=O)O [6-DIAZO-5-OXO-L-NORLEUCINE]
Activity [5]: 251 mm3
Activity [6]: 364 mm3
Activity (Mus musculus [7]): Toxic
Activity [8]: 256 mm3
AUC(0-t) (in vivo [9]): 1.25 µM·h
Cmax [10]: 2200 nM
Drug uptake [11]: 0.33 nmol/g
Cmax [12]: 12.6 µM
Activity [13]: 504 mm3
Kp [14]: 0.46
Tmax [15]: 10.2 min
Activity (Mus musculus [16]): 12%
AUC(0-t) (in vivo [17]): 42.7 µM·h
Cmax [18]: 0.56 nmol/g
Activity (Mus musculus [19]): Toxic
inhibition in vivo at 0.8 mg/kg [20]: > 50%
Activity (Mus musculus [21]): Toxic
inhibition (Mus musculus [22]): Active

remaining at 1 h, 10 µM [2]: 61%
Cmax [23]: 1500 nM
Cmax [24]: 2230 nM
remaining at 1 h, 10 µM [3]: 0%
Tmax [25]: 15 min
AUCt [26]: 5.71 nmol·h/mL
remaining at 1 h, 10 µM [1]: > 90%
AUCt [27]: 0.69 nmol·h/g
Cmax [28]: 0.64 nmol/g
BPR [29]: 0.57
remaining at 1 h, 10 µM [4]: 91%
Drug metabolism [30]: 1.43 nmol/g
Tmax [31]: 1.5 h
AUCt [32]: 1.22 nmol·h/mL
Compound: COC(=O)[C@H](CCC(=O)C=[N+]=[N-])NC(=O)OC(OC(=O)C(C)(C)C)C(C)C (stereo partly drawn)

remaining at 1 h, 10 µM [2]: 0%
remaining at 1 h, 10 µM [3]: 0%
remaining at 1 h, 10 µM [1]: > 90%
remaining at 1 h, 10 µM [4]: 0%
Compound: CCOC(=O)[C@H](CCC(=O)C=[N+]=[N-])NC(=O)OCc1oc(=O)oc1C
